Read-outs that look alike come from different tables or passages of the source.
Tests used:
Test in all cases: KDM demethylase inhibition (IC50)
Format in all cases: biochemical
KDM6A = KDM6A (Homo sapiens, UniProt O15550)
KDM2B = target: T1, KDM2B (Homo sapiens, UniProt Q8NHM5)
T1 sequence (Q8NHM5 1-1336): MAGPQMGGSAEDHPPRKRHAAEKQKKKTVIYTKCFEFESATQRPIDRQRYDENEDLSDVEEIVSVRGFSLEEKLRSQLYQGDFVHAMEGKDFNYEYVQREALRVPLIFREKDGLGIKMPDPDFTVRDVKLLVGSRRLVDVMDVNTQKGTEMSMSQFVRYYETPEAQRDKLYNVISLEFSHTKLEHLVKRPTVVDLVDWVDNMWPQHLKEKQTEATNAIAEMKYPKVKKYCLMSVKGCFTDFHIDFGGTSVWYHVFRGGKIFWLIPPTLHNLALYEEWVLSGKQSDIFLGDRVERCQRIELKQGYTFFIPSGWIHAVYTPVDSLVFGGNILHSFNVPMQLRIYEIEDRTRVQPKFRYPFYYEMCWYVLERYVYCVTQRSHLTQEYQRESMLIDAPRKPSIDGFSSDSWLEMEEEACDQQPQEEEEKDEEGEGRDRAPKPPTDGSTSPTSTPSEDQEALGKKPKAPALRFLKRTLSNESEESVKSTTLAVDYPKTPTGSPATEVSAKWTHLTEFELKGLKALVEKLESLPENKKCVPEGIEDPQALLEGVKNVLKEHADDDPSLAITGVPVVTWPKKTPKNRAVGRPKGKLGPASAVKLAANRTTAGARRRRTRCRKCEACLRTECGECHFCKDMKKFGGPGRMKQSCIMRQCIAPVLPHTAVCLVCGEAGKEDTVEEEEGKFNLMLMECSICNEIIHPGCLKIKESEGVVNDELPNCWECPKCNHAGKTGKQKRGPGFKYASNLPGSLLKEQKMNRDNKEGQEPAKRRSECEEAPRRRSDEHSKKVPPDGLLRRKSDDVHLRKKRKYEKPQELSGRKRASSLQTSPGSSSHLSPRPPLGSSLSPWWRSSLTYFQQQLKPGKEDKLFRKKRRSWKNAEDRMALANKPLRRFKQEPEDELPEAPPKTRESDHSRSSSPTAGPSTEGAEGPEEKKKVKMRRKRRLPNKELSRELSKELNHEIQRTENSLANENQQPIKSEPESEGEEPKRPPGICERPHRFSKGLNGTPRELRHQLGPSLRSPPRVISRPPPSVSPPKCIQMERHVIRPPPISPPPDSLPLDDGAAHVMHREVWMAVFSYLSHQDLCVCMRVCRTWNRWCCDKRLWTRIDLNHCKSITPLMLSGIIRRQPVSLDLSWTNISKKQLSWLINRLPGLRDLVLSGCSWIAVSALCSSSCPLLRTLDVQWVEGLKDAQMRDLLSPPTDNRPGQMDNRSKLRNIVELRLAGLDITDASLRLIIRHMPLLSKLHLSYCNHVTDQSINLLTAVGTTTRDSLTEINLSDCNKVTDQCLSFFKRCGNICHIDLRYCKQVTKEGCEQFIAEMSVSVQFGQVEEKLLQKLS

KDM4D = target: T2, KDM4D (Homo sapiens, UniProt Q6B0I6)
T2 sequence (Q6B0I6 1-523): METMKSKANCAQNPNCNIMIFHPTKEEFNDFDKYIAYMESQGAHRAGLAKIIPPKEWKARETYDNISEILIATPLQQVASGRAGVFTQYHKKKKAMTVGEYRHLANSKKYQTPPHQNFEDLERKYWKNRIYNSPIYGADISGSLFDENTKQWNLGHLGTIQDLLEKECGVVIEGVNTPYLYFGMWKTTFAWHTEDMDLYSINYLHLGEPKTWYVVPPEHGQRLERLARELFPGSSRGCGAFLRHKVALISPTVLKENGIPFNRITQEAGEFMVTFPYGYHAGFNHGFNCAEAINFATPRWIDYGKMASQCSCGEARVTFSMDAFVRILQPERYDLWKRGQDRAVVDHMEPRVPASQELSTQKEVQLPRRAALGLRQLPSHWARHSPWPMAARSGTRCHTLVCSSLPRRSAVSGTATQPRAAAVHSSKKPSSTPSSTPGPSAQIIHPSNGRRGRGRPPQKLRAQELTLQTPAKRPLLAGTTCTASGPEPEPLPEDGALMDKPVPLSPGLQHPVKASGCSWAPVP

KDM4A = target: T3, KDM4A (Homo sapiens, UniProt O75164)
T3 sequence (O75164 1-1064): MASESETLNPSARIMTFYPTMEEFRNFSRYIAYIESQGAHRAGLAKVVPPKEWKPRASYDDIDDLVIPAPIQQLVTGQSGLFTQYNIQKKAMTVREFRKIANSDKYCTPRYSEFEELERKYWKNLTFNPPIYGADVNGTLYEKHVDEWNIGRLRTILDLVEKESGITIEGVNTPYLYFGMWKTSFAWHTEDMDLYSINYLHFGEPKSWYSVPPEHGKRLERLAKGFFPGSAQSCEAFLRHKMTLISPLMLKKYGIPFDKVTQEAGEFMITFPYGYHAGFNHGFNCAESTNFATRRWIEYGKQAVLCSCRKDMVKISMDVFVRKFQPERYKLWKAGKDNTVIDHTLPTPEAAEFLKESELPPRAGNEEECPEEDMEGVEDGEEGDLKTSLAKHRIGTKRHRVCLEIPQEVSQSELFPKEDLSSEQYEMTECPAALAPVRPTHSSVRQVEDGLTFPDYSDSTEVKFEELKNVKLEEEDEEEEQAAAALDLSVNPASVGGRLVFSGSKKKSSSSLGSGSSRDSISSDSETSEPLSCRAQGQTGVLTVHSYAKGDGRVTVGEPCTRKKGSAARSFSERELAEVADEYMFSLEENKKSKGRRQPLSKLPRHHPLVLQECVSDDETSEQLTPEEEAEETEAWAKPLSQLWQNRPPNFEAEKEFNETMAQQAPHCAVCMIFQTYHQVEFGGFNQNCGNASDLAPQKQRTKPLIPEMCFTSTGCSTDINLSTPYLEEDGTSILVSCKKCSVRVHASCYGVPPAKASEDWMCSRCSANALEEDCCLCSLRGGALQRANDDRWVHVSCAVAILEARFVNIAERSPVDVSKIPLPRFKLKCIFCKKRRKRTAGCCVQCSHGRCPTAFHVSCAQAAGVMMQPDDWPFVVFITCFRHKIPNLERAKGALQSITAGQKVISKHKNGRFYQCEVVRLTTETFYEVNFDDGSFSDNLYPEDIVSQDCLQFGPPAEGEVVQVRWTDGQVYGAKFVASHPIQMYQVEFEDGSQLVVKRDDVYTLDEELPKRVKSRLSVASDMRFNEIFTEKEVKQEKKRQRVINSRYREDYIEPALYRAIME

[1] = read-out: IC50, demethylase activity

Chain of KDM6A (O15550 whole entry): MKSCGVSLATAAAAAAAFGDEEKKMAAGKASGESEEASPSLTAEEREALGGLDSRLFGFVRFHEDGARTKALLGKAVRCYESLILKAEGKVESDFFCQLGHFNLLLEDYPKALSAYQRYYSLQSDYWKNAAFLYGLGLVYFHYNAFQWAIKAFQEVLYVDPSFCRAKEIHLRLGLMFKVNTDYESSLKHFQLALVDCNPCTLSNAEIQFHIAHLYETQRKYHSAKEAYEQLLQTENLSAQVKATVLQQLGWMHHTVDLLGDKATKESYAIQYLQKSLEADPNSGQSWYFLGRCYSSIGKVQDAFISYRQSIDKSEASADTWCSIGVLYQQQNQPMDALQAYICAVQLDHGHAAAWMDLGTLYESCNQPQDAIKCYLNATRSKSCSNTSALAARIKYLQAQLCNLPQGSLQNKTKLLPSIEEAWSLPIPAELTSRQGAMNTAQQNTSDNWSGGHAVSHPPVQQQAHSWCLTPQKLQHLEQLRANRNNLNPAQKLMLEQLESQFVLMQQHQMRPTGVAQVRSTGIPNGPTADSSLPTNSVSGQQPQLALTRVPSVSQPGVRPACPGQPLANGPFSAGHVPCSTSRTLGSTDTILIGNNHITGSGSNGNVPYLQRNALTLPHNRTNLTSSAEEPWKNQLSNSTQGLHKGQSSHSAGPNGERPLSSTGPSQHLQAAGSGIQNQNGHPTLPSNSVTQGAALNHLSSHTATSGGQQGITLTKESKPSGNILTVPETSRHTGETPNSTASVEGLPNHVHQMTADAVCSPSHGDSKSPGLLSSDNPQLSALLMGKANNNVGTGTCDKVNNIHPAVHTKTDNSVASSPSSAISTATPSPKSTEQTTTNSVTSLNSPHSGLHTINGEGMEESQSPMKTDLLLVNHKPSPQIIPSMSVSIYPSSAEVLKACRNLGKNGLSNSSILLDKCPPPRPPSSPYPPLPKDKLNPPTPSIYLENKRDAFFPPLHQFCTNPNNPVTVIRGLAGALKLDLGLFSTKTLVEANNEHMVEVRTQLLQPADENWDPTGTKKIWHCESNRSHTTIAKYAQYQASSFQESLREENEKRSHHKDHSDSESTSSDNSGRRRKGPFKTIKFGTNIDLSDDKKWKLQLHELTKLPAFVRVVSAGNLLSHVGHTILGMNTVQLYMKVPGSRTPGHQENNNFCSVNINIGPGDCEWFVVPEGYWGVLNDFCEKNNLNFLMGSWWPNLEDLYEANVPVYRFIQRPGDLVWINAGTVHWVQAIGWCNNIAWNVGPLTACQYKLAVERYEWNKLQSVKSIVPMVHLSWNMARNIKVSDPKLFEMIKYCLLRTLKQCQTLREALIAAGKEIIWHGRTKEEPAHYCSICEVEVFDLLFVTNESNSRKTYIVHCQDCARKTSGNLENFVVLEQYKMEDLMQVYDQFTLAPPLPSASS

CN(c1ccccc1)c1ccc2c(c1)CCC[C@H]2CNc1cnccc1C(=O)O [Compound I, 3-({[(1R)-6-[methyl(phenyl)amino]-1,2,3,4-tetrahydronaphthalen-1-yl]methyl}amino)pyridine-4-carboxylic Acid]
IC50 (KDM6A): > 10000 nM
IC50 (KDM2B): > 10000 nM
IC50 (KDM4D; read-out: Compound I IC50): 104 nM
IC50 (KDM4D; [1]): < 105 nM
IC50 (KDM4A; read-out: Compound I IC50): 104 nM
IC50 (KDM4A; [1]): < 105 nM

Reference: patent US20180290977A1, “KDM4 INHIBITORS” (Albert-Ludwigs-University Freiburg, priority 2017, published 2018)
